Assay results taken from PMC8280061, “A novel ligand of the translationally controlled tumor protein (TCTP) identified by virtual drug screening for cancer differentiation therapy” (Investigational New Drugs, 2021).

Legend:
[1] = target: T1, translationally controlled tumor protein (TCTP) (Homo sapiens, UniProt P13693); assay: microscale thermophoresis with NHS-labeled purified human TCTP (reference inhibitor, positive control); assay type: binding
T1 construct: gene TPT1
T1 sequence (P13693 1-172): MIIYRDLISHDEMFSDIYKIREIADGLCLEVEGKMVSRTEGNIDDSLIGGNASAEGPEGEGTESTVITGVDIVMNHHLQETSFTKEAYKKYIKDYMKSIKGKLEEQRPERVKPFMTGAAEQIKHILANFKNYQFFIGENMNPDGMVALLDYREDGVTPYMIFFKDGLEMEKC

[2] = target: T1, translationally controlled tumor protein (TCTP); assay: microscale thermophoresis with NHS-labeled purified human TCTP; supported by co-immunoprecipitation of p53 from treated MOLT-4 cells; assay type: binding

| Kd [1] | Kd [2] | SMILES |
| --- | --- | --- |
| 23.2 ± 9.45 µM | – | C[C@H]1[C@H](OC(=O)CCC(=O)O)O[C@@H]2O[C@@]3(C)CC[C@H]4[C@H](C)CC[C@@H]1[C@@]24OO3 [Artesunate] |
| – | 0.87 ± 0.38 µM | COc1cccc2c(C)nc(Nc3nc(-c4ccc(F)cc4)cc(=O)[nH]3)nc12 [ZINC10157406, 6-(4-fluorophenyl)-2-[(8-methoxy-4-methyl-2-quinazolinyl)amino]-4(3H)-pyrimidinone] |
